Consider three molecules from patent US5744121A (priority 1996, dated 1998).

The target in series [1] is T1, 5-HT1A receptor (rat hippocampal homogenates) (Rattus norvegicus, UniProt P19327).
T1 construct: in rat hippocampal membrane preparations; from tissue; host or cells: rat hippocampus (membrane preparations / tissue homogenates)
T1 sequence (P19327 1-422): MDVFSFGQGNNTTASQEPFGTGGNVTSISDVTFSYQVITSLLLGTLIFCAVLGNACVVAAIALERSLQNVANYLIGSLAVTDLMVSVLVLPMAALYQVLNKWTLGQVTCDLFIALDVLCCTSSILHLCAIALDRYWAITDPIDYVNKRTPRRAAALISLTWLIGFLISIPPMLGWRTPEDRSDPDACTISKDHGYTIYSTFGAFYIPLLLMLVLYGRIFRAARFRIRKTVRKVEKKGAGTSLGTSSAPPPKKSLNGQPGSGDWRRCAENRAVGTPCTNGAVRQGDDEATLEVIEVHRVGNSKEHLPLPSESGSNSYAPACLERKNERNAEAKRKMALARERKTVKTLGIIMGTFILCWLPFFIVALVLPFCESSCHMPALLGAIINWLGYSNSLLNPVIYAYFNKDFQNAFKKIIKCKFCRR
Put plainly: Inhibition of [^125 I]-8-OH-PIPAT binding to rat hippocampal homogenates. Particulars: ligand [^125 I]-8-OH-PIPAT. The source says:
The 5-HT1A binding affinity of p-, m-, o- MPPI, p-fluoro- and p-nitro-MPP derivatives (1a-f) in rat hippocampal membrane preparations with [^123 ]

In series [2] the test system is 5-HT1A receptor. Put plainly: Blocking studies: regional brain uptake ratios in rats. It counts as in vivo. The following applies: 30 min post iv injection of tracer. The method, then:
In order to further characterize the in vivo brain uptake of 1a in rats, blocking studies were carried out to determine changes of the ratios of regional brain uptake. […] Ratios for each region were calculated based on the % dose/gram of each region divided by the same in CB. […] (HP: hippocampus; CB: cerebellum; HY: hypothalamus; CX: cortex; ST: striatum).

In series [3] the test system is serotonin (5-HT1A) receptor. Put plainly: Selectivity for serotonin 5-HT1A receptor. It counts as binding.
Series [4] has as its target T1, 5-HT1A receptor (rat hippocampal homogenates). Put plainly: Inhibition of [^125 I]-p-MPP binding to rat hippocampal homogenates. Particulars: ligand [^125 I]-p-MPP, rat hippocampal homogenates; read-out: Ki.
The nature of series [5]: Biodistribution in rats after iv injection. It counts as in vivo, Male Sprague-Dawley rats. Particulars: 2 min, average of 3 rats ± SD. The protocol:
Male Sprague-Dawley rats (225-300 g), allowed free access to food and water, were used for an in vivo biodistribution study. While the rats were under ether anesthesia, 0.2 mL of a saline solution containing [^123 I]1a and 1b (8-10 μCi) was injected directly into the femoral vein, and rats were sacrificed at various time points postinjection by cardiac excision under ether anesthesia. The organs of interest were removed and weighed and the radioactivity was counted with a Packard […] automatic counter (Model 5000). The percentage dose per organ was calculated by a comparison of the tissue counts to suitably diluted aliquots of the injected material.

Series [6] concerns 5-HT1A receptor. Put plainly: Regional brain distribution in rats after iv injection. It counts as in vivo, Male Sprague-Dawley rats. The following applies: ^123 I labeled, iv.
Experimental: (§1) While the rats were under ether anesthesia, 0.2 mL of a saline solution containing [^123 I]1a and 1b (8-10 μCi) was injected directly into the femoral vein, and rats were sacrificed at various time points postinjection by cardiac excision under ether anesthesia. The organs of interest were removed and weighed and the radioactivity was counted with a Packard garnma automatic counter (Model 5000). The percentage dose per organ was calculated by a comparison of the tissue counts to suitably diluted aliquots of the injected material. Total activities of blood and muscle were calculated under the assumption that they were 7% and 40% of the total body weight, respectively.
(§2) By dissecting, weighing and counting samples from different brain regions (cortex, striatum, hippocampus, hypothalamus and cerebellum), the percentage dose/gram of the sample was calculated by comparing the sample counts with the count of the diluted initial dose.
Experiment in series [7]: as above
Experimental: as §1, §2
It counts as in vivo, Male Sprague-Dawley rats. Particulars: rat, hippocampus; 60 minutes after iv injection, ^123 I labeled; read-out: Uptake in hippocampal tissue.

The subject of the next series is α1 receptor. Particulars: relative to 5-HT1A; cited from earlier work.
The target in series [8] is 5-HT1A receptor. Particulars: cited from earlier work.
In the next series the test system is other receptors. Particulars: cited from earlier work.

Take `COc1ccccc1N1CCN(CCN(C(=O)c2ccc(I)cc2)c2ccccn2)CC1` [Compound 1a, 4-(2'-methoxy)phenyl-1-[2'-(N-2"-pyridinyl)-p-iodobenzamido]ethyl piperazine]: the figures for the Ki in series [1] and in series [4] were 2.6 ± 0.7 nM and 0.96 ± 0.1 nM, respectively. The HP/CB ratio was 1.21 in the series on 5-HT1A receptor [2] ((±)8-OH-DPAT pretreated (2 mg/kg, iv, 5 min prior)); 1.07 with 5-HT1A receptor [2] (WAY 100635 pretreated (1 mg/kg, iv, 20 min prior)); 3.69 with 5-HT1A receptor [2] (control (no pretreatment)). For the same molecule, the “selectivity/affinity for serotonin 5-HT1A receptor” value in series [3] is “unique high affinity and selectivity toward serotonin 5-HT1A sites”. In addition, the Brain uptake in series [5] amounted to 1.22 % dose/organ. Moreover, the “5-HT1A related specific uptake (regional distribution pattern in rat brain)” value with 5-HT1A receptor [6] was “displayed the 5-HT1A related specific uptake”. In series [7], the tissue uptake (as a rule, the share of the injected amount in each gram of the tissue) at 1 h was determined as 0.13 %ID/g.

Take `COc1ccccc1N1CCN(CCCCN2C(=O)c3ccccc3C2=O)CC1` [NAN-190, 1-(2-methoxyphenyl)-4-[4-(2-phthalimido)butyl]piperazine]: the “potency for the α1 receptor” value in the series with α1 receptor is “equal potency for the α1 receptor”. The inhibition constant (Ki) (usually a dissociation constant, usually derived from enzyme kinetics or from competition with a known ligand) at 5-HT1A receptor [8] (5-HT1A affinity) is 0.6 nM.

Take `COc1ccccc1N1CCN(CCCCNC(=O)C23CC4CC(CC(C4)C2)C3)CC1` [4-[4-(1-adamantanecarboxamido)-butyl] 1-(2-methoxyphenyl)piperazine]: the “binding affinity to other receptors” value in the series with other receptors is “devoid of binding affinity to other receptors”. The dissociation constant Kd (commonly a measure of binding affinity in units of concentration) at 5-HT1A receptor [8] (5-HT1A receptor) was 0.4 nM.
